In data set [1] the target is T1, human TRPV1 (Homo sapiens, UniProt Q8NER1).
T1 construct: expressed in transfected cells; host or cells: CHO-K1 cells, pCAGGS vector, clones selected by limiting dilution
Briefly: Capsaicin-induced Ca influx in transformed CHO cells, FDSS-6000 (b-1), A2 value. The data set is classed as cell-based. As to conditions: concentration shifting the capsaicin concentration-reaction curve two times rightward; CHO cells expressing TRPV1. The text has this:
(1) Measurement of Capsaicin-Induced Ca Influx in a Transformed CHO Cell Line Expressing Human TRPV1
(a) Establishment of a Transformed CHO Cell Line Expressing Human and Rat TRPV1
Human and rat vanilloid receptor 1 (hTRPV1 and rTRPV1) cDNA was cloned from human brain and rat dorsal root ganglion, respectively. The cloned TRPV1 cDNA was incorporated in a pCAGGS vector. The vector was introduced to a CHO-K1 cell line, thus performing transformation. Clones obtained by limiting dilution were stimulated with capsaicin. Clones with a high responsiveness were selected using an increase in the Ca concentration as an indicator. The selected clones were used for the following experiment.
(b-1) Measurement of Ca Influx using FDSS-6000
The transformed CHO cells expressing human or rat TRPV1 were seeded in a 96-well plate (with black walls and transparent bottoms, manufactured by Greiner) at a density of 40,000 cells per well. The cells were cultured at 37° C. in 5% CO2 atmosphere for one night. A loading solution of FLIPR Calcium 3 assay kit (manufactured by Molecular Devices Corporation) containing 2.5 mmol/L of probenecid was then added to each of the wells in the same amount as the culture medium, and the cells were cultured at 37° C. for 60 minutes. For three minutes after the cells were stimulated with capsaicin (1 nmol/L to 1 μmol/L), the change of the intracellular Ca concentration was measured using FDSS-6000 (λex: 480 nm, λem: […], manufactured by Hamamatsu Photonics K.K.). The integrated values of the increase rate of the intracellular Ca concentration were calculated for a group treated with the compounds of the present invention and a group treated with a vehicle, thus allowing capsaicin concentration-reaction curves to be obtained. A concentration (A2 value) of each of the compounds of the present invention, at which the capsaicin concentration-reaction curve obtained when the cells were treated with the vehicle was shifted two times rightward, was calculated. The inhibitory effects of the test compounds were compared using this value as an indicator.

A short description of data set [2]: Effects on rectal temperature (8-1), oral administration to rats. As to conditions: oral single doses of 3, 10 and 30 mg/kg; 30, 60 and 120 minutes; maximum absolute difference vs vehicle. The data set is classed as in vivo, rat. On the procedure: (8-1) Effects on Rectal Temperature
A test compound was orally administered to rats at single doses of 3, 10 and 30 mg/kg. Then rectal temperature was measured 30, 60 and 120 minutes after administration.
Differences of the mean value between a group treated with test substance and a vehicle-treated group were calculated at all measuring points and, based on the maximum absolute value of differences, changes in rectal temperature were divided into the following three categories:
−: the maximum value was less than 0.5 degree Celsius +: the maximum value was more than 0.5 degree but less than 1.0 degree Celsius ++: the maximum value was more than 1.0 degree Celsius

T1 sequence (Q8NER1 whole entry): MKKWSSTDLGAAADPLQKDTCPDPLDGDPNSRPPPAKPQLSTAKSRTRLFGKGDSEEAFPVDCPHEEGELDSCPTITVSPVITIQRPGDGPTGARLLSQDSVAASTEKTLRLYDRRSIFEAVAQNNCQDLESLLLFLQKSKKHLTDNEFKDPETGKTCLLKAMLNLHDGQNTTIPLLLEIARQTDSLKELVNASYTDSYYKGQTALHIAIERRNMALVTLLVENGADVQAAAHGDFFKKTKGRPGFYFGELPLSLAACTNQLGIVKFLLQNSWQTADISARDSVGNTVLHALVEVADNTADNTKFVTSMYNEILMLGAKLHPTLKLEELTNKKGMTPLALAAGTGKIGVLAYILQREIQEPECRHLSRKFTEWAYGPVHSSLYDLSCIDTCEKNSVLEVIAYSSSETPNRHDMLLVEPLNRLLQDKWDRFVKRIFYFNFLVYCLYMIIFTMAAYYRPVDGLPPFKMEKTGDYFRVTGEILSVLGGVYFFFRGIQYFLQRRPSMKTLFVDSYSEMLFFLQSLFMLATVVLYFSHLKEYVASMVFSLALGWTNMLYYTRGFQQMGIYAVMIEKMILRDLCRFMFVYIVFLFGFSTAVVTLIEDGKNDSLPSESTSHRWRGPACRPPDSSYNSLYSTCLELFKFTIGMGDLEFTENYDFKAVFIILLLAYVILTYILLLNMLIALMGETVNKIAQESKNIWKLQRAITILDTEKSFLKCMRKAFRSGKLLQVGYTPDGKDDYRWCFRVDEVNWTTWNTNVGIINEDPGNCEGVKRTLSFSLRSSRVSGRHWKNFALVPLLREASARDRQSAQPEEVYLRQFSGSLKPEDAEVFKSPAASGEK

As to `O=C(/C=C1\CCCOc2cc(C(F)(F)F)ccc21)Nc1ccc2c(c1)NC(=O)C(N1CCOCC1)C2` (single isomer, unassigned) [EXAMPLE 35, (E)-2-(8-trifluoromethyl-3,4-dihydrobenzo[b]oxepin-5(2H)-ylidene)-N-(3-(4-morpholinyl)-3,4-dihydro-2(1H)-quinolinon-7-yl)acetamide], the A2 value result in data set [1] is “A (A2 value of less than 100 nM)”. The “Change in rectal temperature in rats” value in data set [2] was “− (the maximum value was less than 0.5 degree Celsius)”. For `CC1(C)C/C(=C\C(=O)Nc2ccc3c(c2)NC(=O)C(N2CCOCC2)C3)c2ccc(C(F)(F)F)cc2O1` (single isomer, unassigned) [Example 213, (E)-2-(7-trifluoromethyl-2,2-dimethylchroman-4-ylidene)-N-(3-(4-morpholinyl)-3,4-dihydro-2(1H)-quinolinon-7-yl)acetamide], the “Change in rectal temperature in rats” value in data set [2] was “− (the maximum value was less than 0.5 degree Celsius)”. Regarding `CC1(C)Nc2ccc(NC(=O)/C=C3\CCCOc4cc(C(F)(F)F)ccc43)cc2NC1=O` [EXAMPLE 10, (E)-2-(8-trifluoromethyl-3,4-dihydrobenzo[b]oxepin-5(2H)-ylidene)-N-(3,3-dimethyl-3,4-dihydro-2(1H)-quinoxalinon-7-yl)acetamide], in data set [1], the A2 value entry is given as “A (A2 value of less than 100 nM)”. In data set [2], the “Change in rectal temperature in rats” value is recorded as “+ (the maximum value was more than 0.5 degree but less than 1.0 degree Celsius)”. `O=C(/C=C1\CCCOc2cc(C(F)(F)F)ccc21)Nc1ccc2c(c1)NC(=O)NC2` [EXAMPLE 13, (E)-2-(8-trifluoromethyl-3,4-dihydrobenzo[b]oxepin-5(2H)-ylidene)-N-(3,4-dihydro-1H-quinazolin-2-on-7-yl)acetamide]: the A2 value entry in data set [1] is given as “A (A2 value of less than 100 nM)”. Moreover, the “Change in rectal temperature in rats” value in data set [2] is “− (the maximum value was less than 0.5 degree Celsius)”. Turning to `CN1Cc2ccc(NC(=O)/C=C3\CCCOc4cc(C(F)(F)F)ccc43)cc2NC1=O` [EXAMPLE 14, (E)-2-(8-trifluoromethyl-3,4-dihydrobenzo[b]oxepin-5(2H)-ylidene)-N-(3-methyl-3,4-dihydro-2(1H)-quinazolinon-7-yl)acetamide], in data set [2], the “Change in rectal temperature in rats” value is recorded as “− (the maximum value was less than 0.5 degree Celsius)”. `O=C(/C=C1\CCCOc2cc(C(F)(F)F)ccc21)Nc1ccc2c(c1)NC(=O)N(CCO)C2` [EXAMPLE 15, (E)-2-(8-trifluoromethyl-3,4-dihydrobenzo[b]oxepin-5(2H)-ylidene)-N-(3-(2-hydroxyethyl)-3,4-dihydro-2(1H)-quinazolinon-7-yl)acetamide]: in data set [1], the A2 value entry is on record as “A (A2 value of less than 100 nM)”. Moreover, the “Change in rectal temperature in rats” value in data set [2] is on record as “− (the maximum value was less than 0.5 degree Celsius)”. As to `O=C(/C=C1\CCOc2cc(C(F)(F)F)ccc21)Nc1ccc2c(c1)NC(=O)CC2` [EXAMPLE 23, (E)-2-(7-trifluoromethylchroman-4-ylidene)-N-(3,4-dihydroquinolin-2(1H)-on-7-yl)acetamide], the A2 value result in data set [1] is on record as “A (A2 value of less than 100 nM)”. Also, the “Change in rectal temperature in rats” value in data set [2] was “− (the maximum value was less than 0.5 degree Celsius)”. Regarding `O=C(/C=C1\CCCOc2cc(C(F)(F)F)ccc21)Nc1ccc2c(c1)NC(=O)C(N1CCOCC1)C2` (stereo not shown) [EXAMPLE 30, (E)-2-(8-trifluoromethyl-3,4-dihydrobenzo[b]oxepin-5(2H)-ylidene)-N-(3-(4-morpholinyl)-3,4-dihydro-2(1H)-quinolinon-7-yl)acetamide], the “Change in rectal temperature in rats” value in data set [2] was “− (the maximum value was less than 0.5 degree Celsius)”. `O=C(/C=C1\CCCOc2cc(C(F)(F)F)ccc21)Nc1ccc2c(c1)NC(=O)C(CCO)O2` (stereo not shown) [Example 3, (E)-2-(8-trifluoromethyl-3,4-dihydrobenzo[b]oxepin-5(2H)-ylidene)-N-(2-(2-hydroxyethyl)-4H-benzo[1,4]oxazin-3-on-6-yl)acetamide]: in data set [1], the A2 value result is listed as “A (A2 value of less than 100 nM)”. Same read-out and setting: with `O=C(/C=C1\CCCOc2cc(C(F)(F)F)ccc21)Nc1ccc2c(c1)NC(=O)CS2` [Example 4, (E)-2-(8-trifluoromethyl-3,4-dihydrobenzo[b]oxepin-5(2H)-ylidene)-N-(2H-benzo[1,4]thiazin-3(4H)-on-6-yl)acetamide] the entry was “A (A2 value of less than 100 nM)”. The same measure, in the same setting: the value for `O=C(/C=C1\CCCOc2cc(C(F)(F)F)ccc21)Nc1ccc2c(c1)NC(=O)C[S+]2[O-]` (stereo not shown) [Example 5, (E)-2-(B-trifluoromethyl-3,4-dihydrobenzo[b]oxepin-5(2H)-ylidene)-N-(1-oxo-2H-benzo[1,4]thiazin-3(4H)-on-6-yl)acetamide] was “B (A2 value of 100 nM or more)”.

For the compound `O=C(/C=C1\CCCOc2cc(C(F)(F)F)ccc21)Nc1ccc2c(c1)NC(=O)CN2` [Example 7, (E)-2-(8-trifluoromethyl-3,4-dihydrobenzo[b]oxepin-5(2H)-ylidene)-N-(3,4-dihydro-2(1H)-quinoxalinon-7-yl)acetamide], the A2 value entry in data set [1] is reported as “A (A2 value of less than 100 nM)”. With `O=C(/C=C1\CCCOc2cc(C(F)(F)F)ccc21)Nc1ccc2cc(N3CCOCC3)c(=O)[nH]c2c1` [Example 58, (E)-2-(8-trifluoromethyl-3,4-dihydrobenzo[b]oxepin-5(2H)-ylidene)-N-(3-(4-morpholinyl)-2(1H)-quinolinon-7-yl)acetamide], in data set [1], the A2 value result is given as “A (A2 value of less than 100 nM)”. As to `O=C(/C=C1\CCCOc2cc(C(F)(F)F)ccc21)Nc1ccc2c(c1)NS(=O)(=O)CC2` [Example 59, (E)-2-(8-trifluoromethyl-3,4-dihydrobenzo[b]oxepin-5(2H)-ylidene)-N-(2,2-dioxo-3,4-dihydro-(1H)-2,1-benzothiazin-7-yl)acetamide], in data set [1], the A2 value entry is recorded as “A (A2 value of less than 100 nM)”. For the compound `O=C(/C=C1\CCCOc2cc(C(F)(F)F)ccc21)Nc1ccc2cc(CO)c(=O)[nH]c2c1` [Example 93, (E)-2-(8-trifluoromethyl-3,4-dihydrobenzo[b]oxepin-5(2H)-ylidene)-N-(3-hydroxymethyl-2(1H)-quinolinon-7-yl)acetamide], the “Change in rectal temperature in rats” value in data set [2] is “− (the maximum value was less than 0.5 degree Celsius)”. Still for that read-out and setting: the value for `CC1(C)C/C(=C\C(=O)Nc2ccc3c(c2)NC(=O)C3(C)C)c2ccc(C(F)(F)F)cc2O1` [Example 109, (E)-2-(7-trifluoromethyl-2,2-dimethylchroman-4-ylidene)-N-(3,3-dimethyl-2(1H)-indolinon-6-yl)acetamide] was “− (the maximum value was less than 0.5 degree Celsius)”; that for `CC1(C)C(=O)Nc2cc(NC(=O)/C=C3\CC4(CCC4)Oc4cc(C(F)(F)F)ccc43)ccc21` [Example 110, (E)-2-(7-trifluoromethyl-spiro[chroman-2,1′-cyclobutane]-4-ylidene)-N-(3,3-dimethyl-2(1H)-indolinon-6-yl)acetamide] was “− (the maximum value was less than 0.5 degree Celsius)”. On the same count and under the same terms, the value for `CN1C(=O)NCc2ccc(NC(=O)/C=C3\CCOc4cc(C(F)(F)F)ccc43)cc21` [Example 151, (E)-2-(7-trifluoromethyl-chroman-4-yliden)-N-(3,4-dihydro-1-methyl-2(1H)-quinazolinon-7-yl)acetamide] was “− (the maximum value was less than 0.5 degree Celsius)”; that for `CN1c2cc(NC(=O)/C=C3\CC4(CCC4)Oc4cc(C(F)(F)F)ccc43)ccc2CCS1(=O)=O` [Example 200, (E)-2-(7-trifluoromethyl-spiro[chroman-2,1′-cyclobutane]-4-ylidene)-N-(3,4-dihydro-2,2-dioxo-1-methyl-1H-2,1-benzothiazin-7-yl)acetamide] was “− (the maximum value was less than 0.5 degree Celsius)”. In the case of `O=C(/C=C1\CCCOc2cc(C(F)(F)F)ccc21)Nc1cccc2c1CCC(=O)N2` [compound 18, (E)-2-(8-trifluoromethyl-3,4-dihydrobenzo[b]oxepin-5(2H)-ylidene)-N-(3,4-dihydro-2(1H)-quinolinon-5-yl)acetamide], the A2 value result in data set [1] is listed as “A (A2 value of less than 100 nM)”.

(Values after US20100016285A1, “HETEROCYCLIDENE-N-(ARYL) ACETAMIDE DERIVATIVE” (MOCHIDA PHARMACEUTICAL CO., LTD., priority 2007, published 2010).)
